Source: patent publication US5391800A, “Method for inhibition of cell motility by sphingosine-1-phosphate, its derivatives and mimetics and method of synthesizing sphingosine-1-phosphate and its derivatives” (The Biomembrane Institute, priority 1993, dated 1995)

Columns and labels:
[1] = system: PKC of B16/F1 melanoma cells; assay: PKC activity of B16/F1 melanoma cells (32P incorporation into histone IIIS); format: biochemical, mouse; conditions: concentration not given
Description: Effects of SPN derivatives on protein kinase C activity and cell growth of B16/F1 cells was also investigated. […] Toxicity of these compounds to B16/F1 cells and human neutrophils was also examined using a trypan blue exclusion assay after 1 hour incubation with the compounds.
*Mean ± S.E. (n = 3). For controls (defined as 100%), PKC activity was
33225 cpm per tube per 20 min, as measured by ^32 P incorporation int

B16/F1 melanoma cells [2] = assay: Growth of B16/F1 melanoma cells (cell count after 48 hr); format: cell-based, mouse; conditions: Mus musculus, B16-F1; 10 μM; 48 hr; control = 100%; mean ± S.E., n = 3
Description: *Mean ± S.E. (n = 3). For controls (defined as 100%), cell number was
10^5 cells were seeded and
cultured on a 35 mm plastic dish in Dulbecco's modified Eagle's medium
containing 2% fetal bovine serum in the presence or absence of SPN
derivatives. 48 hr later, cells were counted.

B16/F1 melanoma cells [3] = assay: Chemotactic motility of B16/F1 cells through MATRI-GEL-coated transwell filter; format: cell-based, mouse; conditions: percent relative to control; mean ± S.E., n = 3 or 4; concentration not given
Description: (§1) The assays for determining chemotactic cell motility and chemoinvasion can be performed using transwell plates with a polycarbonate membrane filter (pore size 8 μm) (Costar Scientific, Cambridge, Mass.). Aliguots, e.g., 50 μl, of an aqueous solution of MATRI-GEL (Collaborative Research, Bedford, Mass.) containing SPN-1-P or other inhibitor (e.g., 20 μg/ml for chemotactic motility assay or 200 μg/ml for chemoinvasion assay), is added to each well and dried overnight. The filter is then fitted onto the lower chamber plate. The lower chamber can contain conditioned medium (CM) (i.e., medium used for splenic stromal cell culture, and containing motility factor secreted by these cells), e.g., 0.6 ml, with or without SPN-1-P or other inhibitor. To the upper chamber is added, e.g., about 100 μl, of cell suspension (5×10^4 cells/ml for invasion assay, 5×10^5 cells/ml for motility assay), which is then incubated in 5% CO2 at 37° C. for 70-72 hours (invasion assay) or 20 hours (motility assay). After incubation, cells remaining in the upper chamber are wiped off with a cotton swab, and cells which had migrated to the lower chamber side of the filter are fixed in methanol for 30 seconds and stained with 0.05% toluidine blue. The filter is removed, the stain is solubilized in 10% acetic acid (e.g., 0.1 ml for invasion assay, 0.5 ml for motility assay), and color intensity (optical density) is quantitated by ELISA reading at 630 nm. Using SPN-1-P, a linear relationship was observed between cell number and toluidine blue optical density (FIG. 7).
(§2) Assays were performed using transwell plates with polycarbonate membrane filters (pore size 8 μm) (Costar Scientific, Cambridge, Mass.). 50 μl aliguots of an aqueous solution of MATRI-GEL (Collaborative Research, Bedford, Mass.) containing 20 μg/ml (for chemotactic motility assay) or 200 μg/ml (for chemoinvasion assay) were added to each well and dried overnight. The filter was fitted onto the lower chamber plate. The lower chamber contained 0.6 ml conditioned medium (CM) (i.e., medium used for splenic stromal cell culture, and containing motility factor secreted by these cells) with or without the suspected inhibitor. To the upper chamber was added 100 μl of cell suspension (5×10^4 cells/ml for invasion assay, 5×10^5 cells/ml for motility assay), which was then incubated in 5% CO2 at 37° C. for 70-72 hours (invasion assay) or 20 hours (motility assay). After incubation, cells remaining in the upper chamber were wiped off with a cotton swab, and cells which had migrated to the lower chamber side of the filter were fixed in methanol for 30 seconds and stained with 0.05% toluidine blue. The filter was removed, the stain was solubilized in 10% acetic acid (0.1 ml for invasion assay, 0.5 ml for motility assay), and color intensity (optical density) was quantitated by ELISA reading at 630 nm. A linear relationship was observed between cell number and toluidine blue optical density (FIG. 7.).
In experiments with different quantities of MATRI-GEL, cell migration through transwell filter was maximal with 1 μg/well was applied, and when CM was used (FIG. 8). Therefore, chemotactic cell motility, as affected by various SPN derivatives, was assayed under these conditions.
*Mean ± S.E. of percent relative to control (n = 4). Actual O.D. value
and 0.147 (HT1080). 6 × 10^4 cells were placed on a transwell
filter coated with 1.0 μg MATRIGEL in the upper chamber, and cultured
for 18 hours in the presence of CM and SPN1-P in the lower chamber.

B16/F1 melanoma cells [4] = assay: Chemoinvasion of B16/F1 cells through thick MATRI-GEL layer on transwell filter; format: cell-based, mouse; conditions: percent relative to control; mean ± S.E., n = 3 or 4; concentration not given; 4200 min
Description: as §1, §2
Chemoinvasion was measured by the ability of tumor cells in CM (as described above) to migrate through a thick layer of MATRI-GEL during a prolonged incubation period (70 hours). This property is distinct from chemotactic cell motility, which involves a much shorter incubation period (20 hours) and a thin layer of MATRI-GEL. For the chemoinvasion assay, 10 μg of MATRI-GEL was applied to a polycarbonate transwell filter and migration was observed following 70 hours incubation (based on results shown in FIG. 8).

human neutrophils = assay: Phagokinetic activity of human neutrophils on gold sol-coated plates; format: cell-based; conditions: 4.5 μM; 2 hours; mean ± S.D.; control 6.3 ± 2.3
Description: Phagokinetic activity is measured by the ability of cells to ingest foreign particles while moving. Cell motility can be estimated as the area of a phagokinetic track on gold sol particle-coated plates as previously described {Albrecht-Buehler, Cell, 11:395 (1977)}. A uniform coating of gold particles is prepared on glass coverslips precoated with bovine serum albumin, and coverslips are rinsed repeatedly to remove non-adhering or loosely-adhering gold particles. Freshly-prepared neutrophils or tumor cells detached from culture are placed in a Petri dish containing the gold sol-coated plate, and incubated for about 2 hours (for human neutrophils) or about 18 hours (for tumor cells). The coverslips are fixed for 1 hour in a 4% formaldehyde solution in phosphate-buffered saline (PBS) and mounted on microscope slides. The phagokinetic tracks are observed on a television connected to a light microscope (Nikon, Tokyo, Japan). Tracks on the television are transferred to translucent sheets, which are then photocopied. Phagokinetic activity is quantitated by cutting and weighing the swept area in the copy.
Cell motility was estimated as the area of phagokinetic track on gold sol particle-coated plates as previously described {Albrecht-Buehler, Cell, 11:395 (1977)}. A uniform coating of gold particles was prepared on glass coverslips precoated with bovine serum albumin, and the coverslips were rinsed repeatedly to remove non-adhering or loosely-adhering gold particles. Freshly-prepared neutrophils or tumor cells detached from culture were placed in a Petri dish containing the gold sol-coated plate, and incubated for 2 hours (for human neutrophils) or 18 hours (for tumor cells). The coverslips were fixed for 1 hour in 4% formaldehyde solution in phosphate-buffered saline (PBS) and mounted on microscope slides. The phagokinetic tracks were observed on a television connected to a light microscope (Nikon, Tokyo, Japan). Tracks on the television were transferred to translucent sheets, which were then photocopied. Phagokinetic activity was quantitated by cutting and weighing the swept area in the copy.
**mean ± S.D. Freshlyprepared neutrophils (1 × 10^4
cell/plate) were seeded on a coverslip precoated with gold sol particles
in the presence or absence of test compound. 2 hours later, incubation wa
terminated by adding 200 μl of 10% formaldehyde and the cleared area
was estimated as described in the text.

`CCCCCCCCCCCCC/C=C/[C@@H](O)[C@H](CO)N(C)C` [DMS, N,N-dimethylsphingosine] was tested, and the “PKC inhibition” value [1] was “in striking contrast to DMS and TMS, SPN-1-P does not inhibit PKC”.
In the case of `CCCCCCCCCCCCC/C=C/[C@@H](O)[C@H](CO)NC(C)=O` [N-acetyl-SPN], the activity at 10 µM (B16/F1 melanoma cells [2]) is reported as 102 ± 4%, the “% motility” value (B16/F1 melanoma cells [3]) is reported as 99 ± 16% and the “% invasion” value (B16/F1 melanoma cells [4]) is reported as 96 ± 14%.
`NCCO` [ethanolamine] was tested, and the “% motility” value (B16/F1 melanoma cells [3]) was 85 ± 13% and the “% invasion” value (B16/F1 melanoma cells [4]) was 140 ± 41%.
`NCCOP(=O)(O)O` [phosphoethanolamine] was tested, and the “% motility” value (B16/F1 melanoma cells [3]) was 86 ± 20%, the “% invasion” value (B16/F1 melanoma cells [4]) was 160 ± 57% and the Cleared area (human neutrophils) was 5.9 ± 2.5 × 10^3 μm^2.
For ceramide, the Cleared area (human neutrophils) was 5.7 ± 3.0 × 10^3 μm^2.
ceramide monohexoside [CMH] was tested, and the “% motility” value (B16/F1 melanoma cells [3]) was 162 ± 29% and the “% invasion” value (B16/F1 melanoma cells [4]) was 178 ± 70%.
With phosphatidylethanolamine the “% motility” value (B16/F1 melanoma cells [3]) was 107 ± 18% and the “% invasion” value (B16/F1 melanoma cells [4]) was 104 ± 37%.
With sphingomyelin the “% motility” value (B16/F1 melanoma cells [3]) was 82 ± 11% and the “% invasion” value (B16/F1 melanoma cells [4]) was 138 ± 18%.
